The data set can be described thus: Solubility in solvents (qualitative). It counts as physicochemical.

As for `CCOC(=O)Oc1ccc(/C=C/C=C/C(=O)NCCN2CCC(OC(c3ccccc3)c3ccccc3)CC2)cc1OC` [TMK 688], the solubility entry is reported as “can easily be dissolved” (in acetone); “can be well dissolved” (in acetonitrile); “can easily be dissolved” (in dichloroethane); “cannot be dissolved well” (in ethanol); “can hardly be dissolved” (in water).

Values taken from patent EP0537070A1, “Compositions containing compound TMK688 and its analogs” (TERUMO KABUSHIKI KAISHA, priority 1991, dated 1993).
